# Source: US10464922B2, “Metalloenzyme inhibitor compounds” (NQP 1598 LTD., priority 2015, dated 2019)
# Like-named read-outs stand apart in the source and are kept apart here.
# Key:
# C. albicans (ATCC 90028) = experiment: Minimum inhibitory concentration, in vitro broth microdilution assay (CLSI M27-A2); assay type: cell-based, Candida albicans; conditions: for MIC: Candida albicans, ATCC90028, 48 h, read-out: Candida albicans MIC
# Procedure, shortened: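 CLSI M27-A2 broth microdilution: 11 two-fold DMSO dilutions into RPMI-1640+MOPS with 1×10^3–1×10^4 CFU/mL, 2 percent DMSO final. Incubated 2 days at 36° C; MIC from visual growth scoring, duplicates.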
# A. fumigatus = A. fumigatus MIC at 100% growth inhibition (CLSI M38-A2); assay type: cell-based, Aspergillus fumigatus; conditions: for MIC: Aspergillus fumigatus, read-out: Aspergillus fumigatus MIC
# Procedure: A. fumigatus MICs were determined at 100% growth inhibition following CLSI guidelines at a concentration range of 8-0.0078 μg/mL (CLSI M38-A2).
# [1] = ATCC 90028, about 50% growth reduction, 2 days at 36° C., range tested 8-0.0078 μg/mL, values given as ranges
# [2] = 100% growth inhibition, range tested 8-0.0078 μg/mL, values given as ranges
SMILES,MIC (C. albicans (ATCC 90028); [1]),MIC (A. fumigatus; [2]),also measured
"CC(O)C(C)n1ncn(-c2ccc(N3CCN(c4ccc(-c5ccc(C(F)(F)[C@](O)(Cn6cnnn6)c6ccc(F)cc6F)nc5)cc4)CC3)cc2)c1=O (stereo partly drawn) [Example 75, 4-(4-(4-(4-(6-((R)-2-(2,4-difluorophenyl)-1,1-difluoro-2-hydroxy-3-(1H-tetrazol-1-yl)propyl)pyridin-3-yl)phenyl)piperazin-1-yl)phenyl)-2-(3-hydroxybutan-2-yl)-2,4-dihydro-3H-1,2,4-triazol-3-one]",0.0078 to 0.01 µg/mL,0.062 to 0.25 µg/mL,–
"N#Cc1ccc2sc(N3CCN(c4ccc(-c5ccc(C(F)(F)[C@](O)(Cn6cnnn6)c6ccc(F)cc6F)nc5)cc4)CC3)nc2c1 [Example 76, (R)-2-(4-(4-(6-(2-(2,4-difluorophenyl)-1,1-difluoro-2-hydroxy-3-(1H-tetrazol-1-yl)propyl)pyridin-3-yl)phenyl)piperazin-1-yl) benzo [d] thiazole-5-carbonitrile]",0.0078 to 0.01 µg/mL,> 8 µg/mL,–
"O[C@@](Cn1cnnn1)(c1ccc(F)cc1F)C(F)(F)c1ccc(-c2ccc(N3CCN(c4ccc5nc(CC(F)(F)F)[nH]c5c4)CC3)cc2)cn1 [Example 77, (R)-2-(2,4-difluorophenyl)-1,1-difluoro-3-(1H-tetrazol-1-yl)-1-(5-(4-(4-(2-(2,2,2-trifluoroethyl)-1H-benzo [d]imidazol-6-yl)piperazin-1-yl)phenyl)pyridin-2-yl) propan-2-ol]",0.01 to 0.1 µg/mL,0.25 to 1 µg/mL,–
"CC(C)Cc1nc2ccc(N3CCN(c4ccc(-c5ccc(C(F)(F)[C@](O)(Cn6cnnn6)c6ccc(F)cc6F)nc5)cc4)CC3)cc2[nH]1 [Example 78, (R)-2-(2,4-difluorophenyl)-1,1-difluoro-1-(5-(4-(4-(2-isobutyl-1H-benzo [d]imidazol-6-yl)piperazin-1-yl)phenyl)pyridin-2-yl)-3-(1H-tetrazol-1-yl) propan-2-ol]",0.01 to 0.1 µg/mL,> 8 µg/mL,–
"Cn1c(N2CCN(c3ccc(-c4ccc(C(F)(F)[C@](O)(Cn5cnnn5)c5ccc(F)cc5F)nc4)cc3)CC2)nc2ccc(C#N)cc21 [Example 79, (R)-2-(4-(4-(6-(2-(2,4-difluorophenyl)-1,1-difluoro-2-hydroxy-3-(1H-tetrazol-1-yl)propyl)pyridin-3-yl)phenyl)piperazin-1-yl)-1-methyl-1H-benzo [d] imidazole-6-carbonitrile]",0.0078 to 0.01 µg/mL,0.25 to 1 µg/mL,–
"Cn1c(N2CCN(c3ccc(-c4ccc(C(F)(F)[C@](O)(Cn5cnnn5)c5ccc(F)cc5F)nc4)cc3)CC2)nc2cc(C#N)ccc21 [Example 80, (R)-2-(4-(4-(6-(2-(2,4-difluorophenyl)-1,1-difluoro-2-hydroxy-3-(1H-tetrazol-1-yl)propyl)pyridin-3-yl)phenyl)piperazin-1-yl)-1-methyl-1H-benzo [d] imidazole-5-carbonitrile]",0.0078 to 0.01 µg/mL,> 8 µg/mL,–
"CC(C)(C)Cn1ncn(-c2ccc(N3CCN(c4ccc(-c5ccc(C(F)(F)[C@](O)(Cn6cnnn6)c6ccc(F)cc6F)nc5)cc4)CC3)cc2)c1=O [Example 81, (R)-4-(4-(4-(4-(6-(2-(2,4-difluorophenyl)-1,1-difluoro-2-hydroxy-3-(1H-tetrazol-1-yl)propyl)pyridin-3-yl)phenyl)piperazin-1-yl)phenyl)-2-neopentyl-2,4-dihydro-3H-1,2,4-triazol-3-one]",0.0078 to 0.01 µg/mL,0.25 to 1 µg/mL,–
"CC[C@@H]([C@H](C)O)n1ncn(-c2ccc(N3CCN(c4ccc(-c5ccc(C(F)(F)[C@](O)(Cn6cnnn6)c6ccc(F)cc6F)nc5)cc4)CC3)cn2)c1=O [Example 82, 4-(5-(4-(4-(6-((R)-2-(2,4-difluorophenyl)-1,1-difluoro-2-hydroxy-3-(1H-tetrazol-1-yl)propyl)pyridin-3-yl)phenyl)piperazin-1-yl)pyridin-2-yl)-2-((2S,3S)-2-hydroxypentan-3-yl)-2,4-dihydro-3H-1,2,4-triazol-3-one]",–,–,Candida albicans MIC (C. albicans (ATCC 90028); [1]): 0.010 to 0.10 µg/mL; Aspergillus fumigatus MIC (A. fumigatus; [2]): 0.062 to 0.25 µg/mL
"CC[C@@H]([C@H](C)O)N(C)C(=O)c1ccc(N2CCN(c3ccc(-c4ccc(C(F)(F)[C@](O)(Cn5cnnn5)c5ccc(F)cc5F)nc4)cc3)CC2)cc1 [Example 83, 4-(4-(4-(6-((R)-2-(2,4-difluorophenyl)-1,1-difluoro-2-hydroxy-3-(1H-tetrazol-1-yl)propyl)pyridin-3-yl)phenyl)piperazin-1-yl)-N-((2S,3S)-2-hydroxypentan-3-yl)-N-methylbenzamide]",0.01 to 0.1 µg/mL,0.25 to 1 µg/mL,–
"OC(c1cccc(N2CCN(c3ccc(-c4ccc(C(F)(F)[C@](O)(Cn5cnnn5)c5ccc(F)cc5F)nc4)cc3)CC2)c1)C(F)(F)F (stereo partly drawn) [Example 86, (2R)-2-(2,4-difluorophenyl)-1,1-difluoro-3-(1H-tetrazol-1-yl)-1-(5-(4-(4-(3-(2,2,2-trifluoro-1-hydroxyethyl)phenyl)piperazin-1-yl)phenyl)pyridin-2-yl) propan-2-ol]",0.0078 to 0.01 µg/mL,0.25 to 1 µg/mL,–
"O=c1n(-c2ccc(N3CCN(c4ccc(-c5ccc(C(F)(F)[C@](O)(Cn6cnnn6)c6ccc(F)cc6F)nc5)cc4)CC3)cn2)cnn1CC(F)(F)F [Example 87, (R)-4-(5-(4-(4-(6-(2-(2,4-difluorophenyl)-1,1-difluoro-2-hydroxy-3-(1H-tetrazol-1-yl)propyl)pyridin-3-yl)phenyl)piperazin-1-yl)pyridin-2-yl)-2-(2,2,2-trifluoroethyl)-2,4-dihydro-3H-1,2,4-triazol-3-one]",0.0078 to 0.01 µg/mL,0.062 to 0.25 µg/mL,–
"NC(CC(F)(F)F)C(=O)Nc1ccc(N2CCN(c3ccc(-c4ccc(C(F)(F)[C@](O)(Cn5cnnn5)c5ccc(F)cc5F)nc4)cc3)CC2)cc1 (stereo partly drawn) [Example 88, 2-amino-N-(4-(4-(4-(6-((R)-2-(2,4-difluorophenyl)-1,1-difluoro-2-hydroxy-3-(1H-tetrazol-1-yl)propyl)pyridin-3-yl)phenyl)piperazin-1-yl)phenyl)-4,4,4-trifluorobutanamide]",–,–,MIC (C. albicans (ATCC 90028)): 0.01 to 0.1 µg/mL; MIC (A. fumigatus): > 8 µg/mL
"CCC(C(=O)Nc1ccc(N2CCN(c3ccc(-c4ccc(C(F)(F)[C@](O)(Cn5cnnn5)c5ccc(F)cc5F)nc4)cc3)CC2)cc1)C(C)O (stereo partly drawn) [Example 89, N-(4-(4-(4-(6-((R)-2-(2,4-difluorophenyl)-1,1-difluoro-2-hydroxy-3-(1H-tetrazol-1-yl)propyl)pyridin-3-yl)phenyl)piperazin-1-yl)phenyl)-2-ethyl-3-hydroxybutanamide]",0.01 to 0.1 µg/mL,0.25 to 1 µg/mL,–
"CC(C)(C)Cc1nc2ccc(N3CCN(c4ccc(-c5ccc(C(F)(F)[C@](O)(Cn6cnnn6)c6ccc(F)cc6F)nc5)cc4)CC3)cc2[nH]1 [Example 90, (R)-2-(2,4-difluorophenyl)-1,1-difluoro-1-(5-(4-(4-(2-neopentyl-1H-benzo [d]imidazol-6-yl)piperazin-1-yl)phenyl)pyridin-2-yl)-3-(1H-tetrazol-1-yl) propan-2-ol]",0.0078 to 0.01 µg/mL,> 8 µg/mL,–
"CC(C)n1ccn(-c2ccc(N3CCN(c4ccc(-c5ccc(C(F)(F)[C@](O)(Cn6cnnn6)c6ccc(F)cc6F)nc5)cc4)CC3)cc2)c1=O [Example 91, 1-(4-(4-(4-(6-(2-(2,4-difluorophenyl)-1,1-difluoro-2-hydroxy-3-(1H-tetrazol-1-yl)propyl)pyridin-3-yl)phenyl)piperazin-1-yl)phenyl)-3-isopropyl-1,3-dihydro-2H-imidazol-2-one]",0.0078 to 0.01 µg/mL,0.25 to 1 µg/mL,–
"CC[C@@H]([C@H](C)O)n1cnc(-c2ccc(N3CCN(c4ccc(-c5ccc(C(F)(F)[C@](O)(Cn6cnnn6)c6ccc(F)cc6F)nc5)cc4)CC3)cc2)n1 [Example 92, (2S,3S)-3-(3-(4-(4-(4-(6-(2-(2,4-difluorophenyl)-1,1-difluoro-2-hydroxy-3-(1H-tetrazol-1-yl)propyl)pyridin-3-yl)phenyl)piperazin-1-yl)phenyl)-1H-1,2,4-triazol-1-yl) pentan-2-ol]",0.0078 to 0.01 µg/mL,0.25 to 1 µg/mL,–
CCC(C(C)O)n1ncn(-c2ccc(N3CCN(c4ccc(-c5ccc(C(F)(F)[C@](O)(Cn6cnnn6)c6ccc(F)cc6F)nc5)cc4)CC3)cc2)c1=O (stereo partly shown) [Example 93],0.0078 to 0.01 µg/mL,0.25 to 1 µg/mL,–
"OC(c1cn(-c2ccc(N3CCN(c4ccc(-c5ccc(C(F)(F)[C@](O)(Cn6cnnn6)c6ccc(F)cc6F)nc5)cc4)CC3)cc2)nn1)C(F)(F)F (stereo partly drawn) [Example 94, (2R)-2-(2,4-difluorophenyl)-1,1-difluoro-3-(1H-tetrazol-1-yl)-1-(5-(4-(4-(4-(4-(2,2,2-trifluoro-1-hydroxyethyl)-1H-1,2,3-triazol-1-yl)phenyl)piperazin-1-yl)phenyl)pyridin-2-yl) propan-2-ol]",0.0078 to 0.01 µg/mL,0.25 to 1 µg/mL,–
"CC[C@@H]([C@H](C)O)n1cc(-c2ccc(N3CCN(c4ccc(-c5ccc(C(F)(F)[C@](O)(Cn6cnnn6)c6ccc(F)cc6F)nc5)cc4)CC3)cc2)nn1 [Example 95, (2S,3S)-3-(4-(4-(4-(4-(6-((R)-2-(2,4-difluorophenyl)-1,1-difluoro-2-hydroxy-3-(1H-tetrazol-1-yl)propyl)pyridin-3-yl)phenyl)piperazin-1-yl)phenyl)-1H-1,2,3-triazol-1-yl) pentan-2-ol]",0.0078 to 0.01 µg/mL,0.25 to 1 µg/mL,–
O=c1n(CC(F)(F)F)ccn1-c1ccc(N2CCN(c3ccc(-c4ccc(C(F)(F)[C@](O)(Cn5cnnn5)c5ccc(F)cc5F)nc4)cc3)CC2)cc1 [Example 96],0.0078 to 0.01 µg/mL,0.25 to 1 µg/mL,–
